In patent publication US12558428B2, “Heterobifunctional compounds and their use in treating disease” (Halda Therapeutics OpCo, Inc., priority 2024, dated 2026):

What follows are compounds tested on T-Rex 293 cells having increased expression of estrogen receptor alpha protein (assay: Cellular growth inhibition assay, T-Rex 293 cells, (+) doxycycline). Settings: T-REx-293, 72 h, Table 7-A; T-Rex 293 cells with doxycycline (increased ERα expression); 72 hours; CellTiter-Glo; read-out: (+) Dox GI50.
Assay type: cell-based
Procedure, shortened: (§1)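 Viability read-out was CellTiter-Glo 2.0 luminescence after 72 h compound exposure, normalized to zero luminescence and fitted by four-parameter regression to give GI50. Cells were an ERα-inducible T-Rex 293 clone cultured with or without 3 ng/mL doxycycline in charcoal-stripped, phenol red-free medium.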
Cc1sc2c(c1C)C(c1ccc(N3CCC4(CCN(CCOc5ccc([C@@H]6c7ccc(O)cc7CC[C@@H]6c6ccccc6)cc5)C4)CC3)cc1)=NC(Cc1ncco1)c1nnc(C)n1-2 (stereo partly drawn) [III-36] gave a GI50 of under 50 nM. Cc1sc2c(c1C)C(c1ccc(NCCCN3CCN(CCOc4ccc([C@@H]5c6ccc(O)cc6CC[C@@H]5c5ccccc5)cc4)CC3)cc1)=NC(Cc1ncco1)c1nnc(C)n1-2 (stereo partly drawn) [III-37] showed a GI50 of under 50 nM. In the case of Cc1sc2c(c1C)C(c1ccc(N3CCC4(CCN(CCOc5ccc([C@@H]6c7ccc(O)cc7CC[C@@H]6c6ccccc6)cc5)CC4)CC3)cc1)=NC(Cc1ncco1)c1nnc(C)n1-2 (stereo partly drawn) [III-38], the GI50 is reported as under 50 nM. For Cc1sc2c(c1C)C(c1ccc(NC[C@@H]3CN(CCOc4ccc([C@@H]5c6ccc(O)cc6CC[C@@H]5c5ccccc5)cc4)CCO3)cc1)=NC(Cc1ncco1)c1nnc(C)n1-2 (stereo partly drawn) [III-39], the GI50 was under 50 nM. For Cc1sc2c(c1C)C(c1ccc(N3C[C@H]4C[C@@H]3CN4CCOc3ccc([C@@H]4c5ccc(O)cc5CC[C@@H]4c4ccccc4)cc3)cc1)=NC(Cc1ncco1)c1nnc(C)n1-2 (stereo partly drawn) [III-40], the GI50 was 50 to 500 nM. Cc1sc2c(c1C)C(c1ccc(N3CCCN(CCCNCCOc4ccc([C@@H]5c6ccc(O)cc6CC[C@@H]5c5ccccc5)cc4)CC3)cc1)=NC(Cc1ncco1)c1nnc(C)n1-2 (stereo partly drawn) [III-42] gave a GI50 of under 50 nM. Work on Cc1sc2c(c1C)C(c1ccc(N[C@H]3CC[C@H](CNCCOc4ccc([C@@H]5c6ccc(O)cc6CC[C@@H]5c5ccccc5)cc4)CC3)cc1)=NC(Cc1ncco1)c1nnc(C)n1-2 (stereo partly drawn) [III-43] yielded a GI50 of under 50 nM. Work on Cc1sc2c(c1C)C(c1ccc(N3CCCC(CN(C)CCOc4ccc([C@@H]5c6ccc(O)cc6CC[C@@H]5c5ccccc5)cc4)C3)cc1)=NC(Cc1ncco1)c1nnc(C)n1-2 (stereo partly drawn) [III-44] yielded a GI50 of 50 to 500 nM.

Each compound was assayed on T-Rex 293 cells lacking increased expression of estrogen receptor alpha protein (assay: Cellular growth inhibition assay, T-Rex 293 cells, (−) doxycycline). Settings: T-REx-293, 72 h, Table 7-A; T-Rex 293 cells without doxycycline (lacking increased ERα expression); 72 hours; CellTiter-Glo; read-out: (−) Dox GI50.
Assay type: cell-based
Procedure, shortened: as §1
With Cc1sc2c(c1C)C(c1ccc(N3CCC4(CCN(CCOc5ccc([C@@H]6c7ccc(O)cc7CC[C@@H]6c6ccccc6)cc5)C4)CC3)cc1)=NC(Cc1ncco1)c1nnc(C)n1-2 (stereo partly drawn) [III-36] the GI50 was 50 to 500 nM. Cc1sc2c(c1C)C(c1ccc(NCCCN3CCN(CCOc4ccc([C@@H]5c6ccc(O)cc6CC[C@@H]5c5ccccc5)cc4)CC3)cc1)=NC(Cc1ncco1)c1nnc(C)n1-2 (stereo partly drawn) [III-37] was tested, and the GI50 was 50 to 500 nM. Cc1sc2c(c1C)C(c1ccc(N3CCC4(CCN(CCOc5ccc([C@@H]6c7ccc(O)cc7CC[C@@H]6c6ccccc6)cc5)CC4)CC3)cc1)=NC(Cc1ncco1)c1nnc(C)n1-2 (stereo partly drawn) [III-38] showed a GI50 of 50 to 500 nM. Cc1sc2c(c1C)C(c1ccc(NC[C@@H]3CN(CCOc4ccc([C@@H]5c6ccc(O)cc6CC[C@@H]5c5ccccc5)cc4)CCO3)cc1)=NC(Cc1ncco1)c1nnc(C)n1-2 (stereo partly drawn) [III-39] was tested, and the GI50 was 50 to 500 nM. Cc1sc2c(c1C)C(c1ccc(N3C[C@H]4C[C@@H]3CN4CCOc3ccc([C@@H]4c5ccc(O)cc5CC[C@@H]4c4ccccc4)cc3)cc1)=NC(Cc1ncco1)c1nnc(C)n1-2 (stereo partly drawn) [III-40] was tested, and the GI50 was 50 to 500 nM. For Cc1sc2c(c1C)C(c1ccc(N3CCCN(CCCNCCOc4ccc([C@@H]5c6ccc(O)cc6CC[C@@H]5c5ccccc5)cc4)CC3)cc1)=NC(Cc1ncco1)c1nnc(C)n1-2 (stereo partly drawn) [III-42], the GI50 was 50 to 500 nM. Cc1sc2c(c1C)C(c1ccc(N[C@H]3CC[C@H](CNCCOc4ccc([C@@H]5c6ccc(O)cc6CC[C@@H]5c5ccccc5)cc4)CC3)cc1)=NC(Cc1ncco1)c1nnc(C)n1-2 (stereo partly drawn) [III-43] gave a GI50 of 50 to 500 nM. Cc1sc2c(c1C)C(c1ccc(N3CCCC(CN(C)CCOc4ccc([C@@H]5c6ccc(O)cc6CC[C@@H]5c5ccccc5)cc4)C3)cc1)=NC(Cc1ncco1)c1nnc(C)n1-2 (stereo partly drawn) [III-44] was tested, and the GI50 was 500 to 2500 nM.

Each compound was assayed on MCF7 cells (ATCC #HTB-22) (assay: Cellular growth inhibition assay, MCF7 cells purchased from ATCC). Settings: Homo sapiens, MCF7, 144 h, Table 8-A; MCF7 cells purchased from ATCC; six days; CellTiter-Glo; read-out: GI50.
Assay type: cell-based
Procedure, shortened: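 MCF7 cells in RPMI 1640 with 10% FBS and 0.2 U/ml insulin, seeded at 1,500 cells/well (ATCC) or 225 cells/well (ECACC). Compounds added 24 h later, then 6 days at 37° C. Viability by CellTiter-Glo 2.0 luminescence. GI50 from four-parameter fit.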
For Cc1sc2c(c1C)C(c1ccc(N3CCC4(CCN(CCOc5ccc([C@@H]6c7ccc(O)cc7CC[C@@H]6c6ccccc6)cc5)C4)CC3)cc1)=NC(Cc1ncco1)c1nnc(C)n1-2 (stereo partly drawn) [III-36], the GI50 was under 50 nM. Cc1sc2c(c1C)C(c1ccc(NCCCN3CCN(CCOc4ccc([C@@H]5c6ccc(O)cc6CC[C@@H]5c5ccccc5)cc4)CC3)cc1)=NC(Cc1ncco1)c1nnc(C)n1-2 (stereo partly drawn) [III-37] showed a GI50 of under 50 nM. With Cc1sc2c(c1C)C(c1ccc(N3CCC4(CCN(CCOc5ccc([C@@H]6c7ccc(O)cc7CC[C@@H]6c6ccccc6)cc5)CC4)CC3)cc1)=NC(Cc1ncco1)c1nnc(C)n1-2 (stereo partly drawn) [III-38] the GI50 was under 50 nM. Cc1sc2c(c1C)C(c1ccc(NC[C@@H]3CN(CCOc4ccc([C@@H]5c6ccc(O)cc6CC[C@@H]5c5ccccc5)cc4)CCO3)cc1)=NC(Cc1ncco1)c1nnc(C)n1-2 (stereo partly drawn) [III-39] was tested, and the GI50 was under 50 nM. Cc1sc2c(c1C)C(c1ccc(N3C[C@H]4C[C@@H]3CN4CCOc3ccc([C@@H]4c5ccc(O)cc5CC[C@@H]4c4ccccc4)cc3)cc1)=NC(Cc1ncco1)c1nnc(C)n1-2 (stereo partly drawn) [III-40] gave a GI50 of under 50 nM. With Cc1sc2c(c1C)C(c1ccc(N3CCCN(CCCNCCOc4ccc([C@@H]5c6ccc(O)cc6CC[C@@H]5c5ccccc5)cc4)CC3)cc1)=NC(Cc1ncco1)c1nnc(C)n1-2 (stereo partly drawn) [III-42] the GI50 was 50 to 500 nM. Work on Cc1sc2c(c1C)C(c1ccc(N[C@H]3CC[C@H](CNCCOc4ccc([C@@H]5c6ccc(O)cc6CC[C@@H]5c5ccccc5)cc4)CC3)cc1)=NC(Cc1ncco1)c1nnc(C)n1-2 (stereo partly drawn) [III-43] yielded a GI50 of 50 to 500 nM. Compound Cc1sc2c(c1C)C(c1ccc(N3CCCC(CN(C)CCOc4ccc([C@@H]5c6ccc(O)cc6CC[C@@H]5c5ccccc5)cc4)C3)cc1)=NC(Cc1ncco1)c1nnc(C)n1-2 (stereo partly drawn) [III-44] has a GI50 of 50 to 500 nM.
